Results as given in patent US20100063048A1, “Remedy for angiospasm accompanying subarachnoid hemorrhage containing thrombin receptor antagonist as the active ingredient” (Eisai R&D Mangement Co., Ltd., priority 2004, published 2010).
“Also recorded” adds a separate entry of the source. Blank lines part the entries; values can stand above or below the compound they belong to.

How the values were obtained:
thrombin = details: administration to a subarachnoid hemorrhage animal model; cited from earlier work
PAR1 = biological target: T1, PAR1 (Oryctolagus cuniculus, UniProt G1TTP8); assay: Effect of PAR1 antagonist on contractile response of rabbit basilar arteries to thrombin (rabbit double-hemorrhage SAH model); format: in vivo
T1 construct: from tissue; host or cells: rabbit basilar artery (E5555 co-injected with autologous blood into the cistern; artery rings tested ex vivo)
T1 sequence (G1TTP8 1-460): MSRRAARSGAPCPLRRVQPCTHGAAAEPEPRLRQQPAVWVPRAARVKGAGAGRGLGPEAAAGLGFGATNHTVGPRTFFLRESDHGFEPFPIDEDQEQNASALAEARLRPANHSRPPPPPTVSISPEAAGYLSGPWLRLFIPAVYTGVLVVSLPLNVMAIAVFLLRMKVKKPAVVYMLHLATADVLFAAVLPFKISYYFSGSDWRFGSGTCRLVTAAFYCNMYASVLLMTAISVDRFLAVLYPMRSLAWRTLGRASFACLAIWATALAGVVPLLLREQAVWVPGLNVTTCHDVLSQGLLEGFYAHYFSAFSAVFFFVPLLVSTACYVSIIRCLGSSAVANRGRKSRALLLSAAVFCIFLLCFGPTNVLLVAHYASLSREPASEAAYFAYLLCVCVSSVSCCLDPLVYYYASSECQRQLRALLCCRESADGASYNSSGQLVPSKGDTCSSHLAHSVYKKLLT
Method: (§1) First, 2.5 ml each of autologous arterial blood was injected into the cisterna magnas twice on Days 0 and 2. Hereinafter, this group is also referred to herein as the “SAH group”. Models injected with equal amounts of saline instead of autologous arterial blood constituted the control group. On Day 7, rabbits from each group were euthanized and endotheliums were removed from the dissected basilar arteries to produce ring preparations (500 μm in width) (FIG. 2). The endothelium-removed basilar artery ring preparations produced in this example were used to perform experiments on contractile response in the following examples.
(§2) Contractile responses to thrombin were determined for the rabbit basilar arteries from the control group and the SAH group. Following contractile response induced by 118 mM K+ depolarization stimulation, the basilar artery ring preparations were stimulated with thrombin. Thrombin is an endogenous ligand of PAR1.
Contractile responses of the rabbit basilar arteries to thrombin were determined for the control group (sham surgery group), the SAH group and the SAH group coexisting with the PAR1 antagonist. Stimulation was given in the same manner as in Example 3.
In this example, the “sham surgery group (sham)” (control rabbit) refers to those obtained by injecting 3 ml saline twice into rabbit cisterns on Days 0 and 2, the “SAH group”(subarachnoid hemorrhage model) refers to those obtained by injecting 3 ml autologous blood twice into rabbit cisterns on Days 0 and 2, and the “SAH+E5555 group” (E5555-administered subarachnoid hemorrhage model) refers to those obtained by injecting 3 ml autologous blood supplemented with 600 μg E5555 twice into rabbit cisterns on Days 0 and 2.
On Day 7, the basilar arteries were removed to assess contractile responses to 118 mM K+ and 1 unit/ml thrombin.
In the same manner as Example 10, contractile responses of the rabbit basilar arteries to thrombin were determined for the control group (the sham surgery group), the SAH group and the SAH group coexisting with the PAR1 antagonist.
In this example, 3 ml each of autologous blood supplemented with 60 ng, 600 ng, 6 μg or 60 μg of E5555 was injected twice into rabbit cistern on Days 0 and 2.

rabbit basilar arteries [1] = assay: Effect of heparinized autologous blood on increased contractile response in SAH group; format: in vivo; details: models injected twice with heparinized autologous blood (SAH+heparin)
Method: as §1
In order to find out the effect of heparin on this increase in the contractile response, an experiment was conducted according to the method of Example 1 using models that had been injected twice with heparinized autologous blood. Heparin forms a complex with anti-thrombin III and becomes an anticoagulant that inactivates blood coagulation factor.

[2] = test system: α toxin-skinned basilar arteries; assay: Contractile responses of α toxin-skinned basilar arteries to thrombin and PAR1-AP; set-up: species or system rabbit
Method: Alpha toxin is a substance that confers permeability to cell membrane. In a rabbit basilar artery that is treated with α toxin for permeabilization (hereinafter, also referred to as an “a toxin-skinned basilar artery”), contractile response associated with increase in calcium ion concentration and contractile response to GTPγS that activates G protein were measured.
Next, contractile responses of a toxin-skinned basilar arteries to thrombin and PAR1-AP were measured.

rabbit basilar arteries [3] = assay: Contractile responses of endothelium-removed rabbit basilar artery ring preparations to thrombin / PAR1-AP
Method: as §1, §2
Same experiment as Example 3 was performed using PAR1-AP (PAR1-activating peptide) instead of thrombin.

Compound: N=C(N)c1ccc2cc(OC(=O)c3ccc(N=C(N)N)cc3)ccc2c1 [FUT-175]
- angiospasm (thrombin): suppress angiospasm

- contractile response of basilar arteries to 1 unit/ml thrombin (PAR1; SAH+E5555 (6 μg) group: autologous blood supplemented with 6 μg injected twice on Days 0 and 2, vs SAH group): smaller than that for the SAH group
- contractile response of basilar arteries to 1 unit/ml thrombin (PAR1; SAH+E5555 (6 μg) group: autologous blood supplemented with 6 μg injected twice on Days 0 and 2, vs SAH group, listed as E5050): significantly suppressed
- contractile response of basilar arteries to 1 unit/ml thrombin (PAR1; SAH+E5555 (60 μg) group: autologous blood supplemented with 60 μg injected twice on Days 0 and 2, vs SAH group): significantly suppressed
- dose of E5555 suppressing increased reactivity to thrombin caused by subarachnoid hemorrhage (dose-dependent) (PAR1; co-administration with autologous blood, 60 ng to 60 μg tested, 1 unit/ml thrombin): ≥ 60 ng
Compound: CCOc1cc2c(c(F)c1OCC)C(=N)N(CC(=O)c1cc(N3CCOCC3)c(OC)c(C(C)(C)C)c1)C2 [Formula E5555]
- contractile response of basilar arteries to 1 unit/ml thrombin (PAR1; SAH+E5555 group: 3 ml autologous blood supplemented with 600 μg E5555 injected twice into cisterns on Days 0 and 2, arteries removed Day 7, n=3): contraction by 1 unit/ml thrombin was small; also recorded: significantly suppressed the increased reactivity to thrombin

Compound: anti-thrombin III
- angiospasm (thrombin): suppress angiospasm

Compound: heparin
- increasement in the contractile response to PAR1-AP (rabbit basilar arteries [1]): decreased significantly
- contractile response to thrombin (rabbit basilar arteries [1]; thrombin 1 unit/nil): 41.6±3.0%

Compound: thrombin
- effect on contractile response induced by calcium ion ([2]; SAH group): significantly increased
- effect on contractile response induced by calcium ion ([2]; control group): had no effect
- concentration from which significant continuous contraction is induced (rabbit basilar arteries [3]; SAH group): ≥ 0.3 units/ml
- reversibility of contractile response on washing (rabbit basilar arteries [3]; SAH group, Day 7, 1 unit/ml thrombin or 100 μM PAR1-AP): not changed by washing
- contractile force (% of 118 mM K+-induced contraction) (rabbit basilar arteries [3]; SAH group, thrombin 1 unit/ml): 73.1±2.8%
- contraction (rabbit basilar arteries [3]; control group, thrombin 1 unit/ml): did not induce contraction
- contractile force (% of 118 mM K+-induced contraction) (rabbit basilar arteries [3]; control group, thrombin 10 units/ml, mild temporary contraction): 21.3±1.2%
